Test results: patent US9969973B2, “Methods and compositions for cell attachment and cultivation on planar substrates” (Janssen Biotech, Inc., priority 2008, dated 2018)

Legend:
[1] = system: human embryonic stem cell line H9; experiment: Attachment of H9 cells to mixed cellulose ester membrane No. 1 with Y26732; assay type: cell-based; conditions: for Effect of Y26732 on attachment of H9 cells: 24 hours
Protocol: Cells of the human embryonic stem cell line H9 were cultured on MATRIGEL® coated dishes prior to experimental manipulation. Cells were seeded a mixed cellulose ester membrane (membrane No. 1) at a density of 150,000 cells/cm^2 in MEF conditioned medium. The planar substrate lacked an adlayer and a fibroblast feeder cell layer. The effect of the Rho Kinase inhibitor treatment on the attachment to the planar substrate was examined Cells were treated with 0, 10, or 20 μM Y26732. After 24 hours, the cells were fixed with 4% paraformaldehyde, rinsed with PBS, air dried, stained with crystal violet dye. The number of cells was determined via light microscopy. Wells containing vehicle were included as a control.

[2] = system: human embryonic stem cell line H9; experiment: Attachment of H9 cells to polycarbonate Membrane No. 7 with Y26732; assay type: cell-based; conditions: 24 hours
Protocol: Cells of the human embryonic stem cell line H9 were seeded onto a planar substrate comprising polycarbonate (Membrane No. 7) at a density of 150,000 cells/cm^2 in MEF conditioned medium. The effect of Rho kinase inhibitor treatment on attachment was examined: The Rho Kinase inhibitor Y26732 was added to the culture medium at concentration of 0, 10, or 20 μM. After 24 hours, the cells on the membrane were fixed with 4% paraformaldehyde at room temperature, rinsed with PBS, air dried, stained with crystal violet dye. The number of cells was determined via light microscopy. Wells containing vehicle were included as a control.

[3] = system: dissociated human embryonic stem cells; conditions: serum-free suspension culture; cited from earlier work
[4] = system: human embryonic stem cells; conditions: cited from earlier work
[5] = system: human embryonic stem cell line H1; experiment: Attachment of human embryonic stem cell line H1 to planar substrates of Table 1, with or without H-1152; assay type: cell-based
Protocol: Prior to testing, cells of the human embryonic stem cell line H1 cells were expanded on tissue culture plates coated with a 1:30 dilution of growth factor-reduced MATRIGEL®. Cells were seeded onto 100 mm culture dishes in 10 ml MEF conditioned media supplemented with 20 ng/ml bFGF (MEF-CM/bFGF). The cells were cultured at 37° C. in a humidified with a 5% CO2 atmosphere. The media was changed everyday with fresh MEF-CM/bFGF. Once the cells reached approximately 80% confluence, the cells were passaged by treatment with 1 mg/ml LIBERASE for 5 minutes at 37° C. The digestion was stopped by removing enzyme from the dish and rinsing the cells with MEF-CM/bFGF. The cells were collected by manual scraping in 10 ml MEF-CM/bFGF and transferred to a 50-ml conical tube. The cells were centrifuged at 200×g (1000 rpm) on a tabletop centrifuge to form a pellet. […]
Cells of the human embryonic stem cell line H1 were seeded onto the various planar substrates set forth in Table 1, at a density of 100,000 cells/cm^2. […] The effect of the Rho kinase inhibitor H-1152 on the attachment of the cells to the planar substrates was determined 3 μM H-1152 was added to the medium used to seed the cells. […] The cells were then stained with 1% hematoxylin, and the number of cells was determined via light microscopy. […]

[6] = system: human embryonic stem cell line H1; experiment: Attachment of H1 cells to polycarbonate Membrane No. 7 with H-1152 concentration series; assay type: cell-based; conditions: 24 hours
Protocol: In a separate experiment, the effect of the Rho kinase inhibitor H-1152 on the attachment of cells of the human embryonic stem cell line H1 to Membrane No. 7 was determined. The cells were seeded on a planar substrate comprising polycarbonate membranes (membrane No. 7) at a density of 150,000 cells/cm^2 in MEF-CM containing 20 ng/ml bFGF. The Rho Kinase inhibitor H-1152 was added to the culture medium at concentration of 0, 0.03, 0.1, 0.3, 1, and 3 μM. After 24 hours, the cells on the membrane were fixed with 4% paraformaldehyde, rinsed with PBS, air dried, stained with crystal violet dye. The number of cells was determined via light microscopy. Wells containing vehicle were included as a control.

[7] = system: human embryonic stem cell line H1; experiment: Detachment of H1 cells from polycarbonate Membrane No. 9 after removal of H-1152; assay type: cell-based; conditions: 3 μM for 24 hr, then 24 hours without
Protocol: Cells of the human embryonic stem cell line H1 were seeded on to a planar substrate comprising polycarbonate (Membrane No. 9) at a density of 100,000 cells/cm^2, in MEF conditioned medium containing 20 ng/ml bFGF and 3 μM of the Rho kinase inhibitor H-1152. The cells were cultured for 24 hr. After this time, the culture medium was replaced with MEF conditioned medium containing 20 ng/ml bFGF, lacking H-1152. After 24 hours, the cells on the membrane were fixed with 4% paraformaldehyde, rinsed with PBS, air dried, stained with crystal violet dye. The number of cells was determined via light microscopy. Wells containing H-1152 were included as a control.

[8] = system: human embryonic stem cell line H1; experiment: Effect of porosity and Rho kinase inhibition on attachment of H1 cells (Membranes No. 10 and 11); assay type: cell-based
Protocol: Cells of the human embryonic stem cell line H1 at passage 42 were seeded onto the following planar substrates: Membrane No. 10 (pore size 0.4 μm); and Membrane No. 11 (pore size 3 μm). Cells were seeded at a density of 100,000 cells/cm^2, in MEF conditioned medium containing 20 ng/ml bFGF. The effect of Rho kinase inhibition on the attachment of the cells to the planar substrates was also examined. The cell culture medium was supplemented with 0.3 μM H-1152. After 24 hours, the culture medium was replaced with MEF conditioned medium containing 20 ng/ml bFGF, lacking H-1152. After another 24 hours culture, the cells on the membrane were fixed with 4% paraformaldehyde, rinsed with PBS, air dried, stained with crystal violet dye. Wells containing 1 μM H-1152 were included as a control. The number of cells was determined via light microscopy. Wells containing vehicle were included as a control.

Compound | Effect of Y26732 on attachment of H9 cells ([1]; 10 μM) | Effect of Y26732 on attachment of H9 cells ([1]; 20 μM) | Effect of removal of Y26732 from the culture medium ([1]; removal for 24 hr) | Effect of Y26732 on attachment of H9 cells ([2]; 10 μM) | Effect of Y26732 on attachment of H9 cells ([2]; 20 μM) | apoptosis of dissociated human ES cells [3] | attachment of human embryonic stem cells on surface modified plates [4] | Effect of H-1152 on attachment of H1 cells ([5]; 3 μM H-1152, membranes No. 2, 4 and 5) | Effect of removal of H-1152 from the culture medium on attached H1 cells ([5]; membranes No. 7 and No. 12) | Attachment of H1 cells with H-1152 ([6]; 0.03 μM) | Attachment of H1 cells with H-1152 ([6]; 0.1 μM) | Attachment of H1 cells with H-1152 ([6]; 0.3 μM) | Attachment of H1 cells with H-1152 ([6]; 1 μM) | Attachment of H1 cells with H-1152 ([6]; 3 μM) | Effect of removal of H-1152 from the culture medium [7] | Need for H-1152 to maintain attachment of H1 cells ([8]; 1 μM, Membranes No. 10 and 11) | Effect of removal of H-1152 from the culture medium ([8]; Membrane No. 10 and Membrane No. 11)
C[C@@H](N)[C@H]1CC[C@H](C(=O)Nc2ccncc2)CC1 [Membrane Y26732] | increased the attachment | increased the attachment | did not result in the detachment | resulted in the attachment | resulted in the attachment | protected from apoptosis | enhance the attachment |  |  |  |  |  |  |  |  |  | 
Cc1cncc2cccc(S(=O)(=O)N3CCCNC[C@@H]3C)c12 [Membrane H-1152] |  |  |  |  |  |  |  | enhanced | led to detachment of H1 cells | do not attach | do not attach | attachment was observed | attachment was observed | attachment was observed | resulted in the detachment of cells | required to maintain the attachment | resulted in detachment of cells
